Consider twelve compounds from ChEMBL document CHEMBL1201862, “PubChem BioAssay data set” (2004).

Some test systems named below: HCT-116; SNB-19; OVCAR-8; COLO 205; NCI-H460; EKVX; HL-60; UACC-257; Malme-3M; SF-295; HCC 2998; SK-MEL-28; MDA-N; OVCAR-4; NCI-H226; OVCAR-5.
Holding throughout (assay): DTP human tumour cell line panel, 48 h

SMILES strings stand for the structures.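 Five compound concentrations were applied to cells in 96-well plates for 48 hours; endpoints were derived by simple linear interpolation of the resulting dose-response curve. GI50 marks 50% less growth.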 Active and inactive are the calls of the source. Cut-off read from the data, not from the text of the source: active = GI50 up to about 1.1 µM and inactive = higher.

For orientation: GI50 means the concentration at which growth is held to half of that of the control. Regarding `Clc1nc(NC23CC4CC(CC(C4)C2)C3)nc(NC23CC4CC(CC(C4)C2)C3)n1`, the GI50 was 15.6 µM (inactive) in the assay with HCT-116; > 100 µM (inactive) in the assay with SNB-19; 70.1 µM (inactive) in the assay on OVCAR-8; > 67.3 µM (inactive) in the assay with COLO 205; 61 µM (inactive) in the assay on NCI-H460; > 89.9 µM (inactive) in the assay with EKVX. Moreover, the GI50 was 19.9 µM (inactive) in the assay with HL-60; 50.7 µM (inactive) in the assay on UACC-257; > 100 µM (inactive) in the assay with Malme-3M; 16.4 µM (inactive) with SF-295; 53.5 µM (inactive) with HCC 2998; > 100 µM (inactive) in the assay with SK-MEL-28. For the same compound, the GI50 in the assay with MDA-N is 46.8 µM (inactive); with OVCAR-4 it was 83 µM (inactive); with NCI-H226, 97.9 µM (inactive); in the assay on OVCAR-5, > 100 µM (inactive).

Take `COc1ccc(C2SCC(=O)N2NC(=O)C(C)Oc2ccccc2C)cc1` (configuration not stated): the GI50 with HCT-116 was 57.5 µM (inactive); with SNB-19 it was > 100 µM (inactive); in the assay with OVCAR-8, > 100 µM (inactive); in the assay with COLO 205, > 100 µM (inactive); in the assay on NCI-H460, > 100 µM (inactive); in the assay with EKVX it was > 100 µM (inactive). Further, the GI50 in the assay on HL-60 is 28.7 µM (inactive); with UACC-257, > 100 µM (inactive); with Malme-3M it was > 100 µM (inactive); with SF-295 it was 60.8 µM (inactive); in the assay on HCC 2998, > 100 µM (inactive); in the assay with SK-MEL-28, > 100 µM (inactive). For the same compound, the GI50 was 86.7 µM (inactive) in the assay with MDA-N, > 100 µM (inactive) with OVCAR-4, > 100 µM (inactive) with NCI-H226 and > 100 µM (inactive) in the assay on OVCAR-5.

On to `C[C@]12CC[C@H]3[C@@H](CC[C@]4(O)C[C@@H](O)CC[C@]34CO)[C@@]1(O)CC[C@@H]2C1=CC(=O)OC1` [STROPHANTHIDOL], for which the 50% growth inhibitory concentration (GI50) with HCT-116 is 0.553 µM (active); with SNB-19, 5.94 µM (inactive); in the assay on OVCAR-8, 1.77 µM (inactive); in the assay on COLO 205, 3.73 µM (inactive); in the assay on NCI-H460, 0.431 µM (active); in the assay with EKVX it was 1.39 µM (inactive). For the same compound, the GI50 in the assay on HL-60 is 1.64 µM (inactive); in the assay on UACC-257 it was 2.99 µM (inactive); with Malme-3M it was 2.21 µM (inactive); in the assay with SF-295, 1.21 µM (inactive); in the assay with HCC 2998, 22.9 µM (inactive); in the assay with SK-MEL-28 it was 4.78 µM (inactive). Moreover, the GI50 in the assay on MDA-N was 2.99 µM (inactive); with OVCAR-4, 1.12 µM (inactive); with NCI-H226, 4.03 µM (inactive); in the assay with OVCAR-5, 3.07 µM (inactive).

In the case of `O=C(CCl)Nc1ccc(-c2nc3ccccc3s2)cc1`, the GI50 was 2.16 µM (inactive) in the assay with HCT-116; 2.4 µM (inactive) in the assay on SNB-19; 2.59 µM (inactive) with OVCAR-8; 2.07 µM (inactive) in the assay on COLO 205; 2.84 µM (inactive) in the assay with NCI-H460; 6.97 µM (inactive) in the assay with EKVX. Further, the GI50 is 1.91 µM (inactive) in the assay with HL-60; 5.66 µM (inactive) in the assay with UACC-257; 2.07 µM (inactive) in the assay with Malme-3M; 6.92 µM (inactive) in the assay with SF-295; 2.51 µM (inactive) in the assay on HCC 2998; 4.12 µM (inactive) in the assay on SK-MEL-28. The GI50 in the assay on MDA-N was 2.49 µM (inactive); in the assay with OVCAR-4 it was 3.37 µM (inactive); in the assay on NCI-H226, 1.43 µM (inactive); in the assay on OVCAR-5, 5.82 µM (inactive).

Consider `Nc1nc(Cl)cc(NCC2(CO)CCCC2)n1`, for which the GI50 in the assay on HCT-116, in the assay on SNB-19, in the assay with OVCAR-8, with COLO 205, in the assay on NCI-H460 and in the assay on EKVX was > 100 µM (inactive) throughout. Besides, the GI50 in the assay with HL-60 was > 100 µM (inactive); in the assay with UACC-257 it was 65.8 µM (inactive); in the assay with Malme-3M it was > 100 µM (inactive); with SF-295, > 100 µM (inactive); in the assay with HCC 2998, > 100 µM (inactive); with SK-MEL-28, > 100 µM (inactive). Besides, the GI50 in the assay with MDA-N was > 100 µM (inactive); in the assay on OVCAR-4, 19 µM (inactive); in the assay on NCI-H226, > 100 µM (inactive); in the assay with OVCAR-5, > 100 µM (inactive).

Regarding `Cc1cccc(C(C)O)n1` (configuration not stated), the GI50 in the assay on HCT-116, with SNB-19, in the assay with OVCAR-8, in the assay with COLO 205, with NCI-H460 and in the assay with EKVX was > 100 µM (inactive) in each case. For the same compound, the GI50 is > 100 µM (inactive) in the assay with HL-60; > 100 µM (inactive) in the assay on UACC-257; 24 µM (inactive) in the assay with Malme-3M; > 100 µM (inactive) in the assay with SF-295; > 100 µM (inactive) in the assay with HCC 2998; > 100 µM (inactive) in the assay on SK-MEL-28. In addition, the GI50 in the assay on MDA-N, in the assay on OVCAR-4, in the assay on NCI-H226 and with OVCAR-5 was > 100 µM (inactive) each time.

`C=C1C[C@@H](O)[C@@H](Br)C(C)(C)[C@]12CCC(C)(Br)C(Cl)C2` (some centres not stated): the GI50 in the assay on HCT-116 is > 50 µM (inactive); in the assay with SNB-19 it was > 50 µM (inactive); in the assay with OVCAR-8 it was > 50 µM (inactive); in the assay with COLO 205 it was 0.791 µM (active); in the assay on NCI-H460 it was > 50 µM (inactive); in the assay on EKVX it was 25.4 µM (inactive). Besides, the concentration for 50% growth inhibition (GI50) is 1.03 µM (active) with HL-60; > 50 µM (inactive) in the assay with UACC-257; > 50 µM (inactive) in the assay on Malme-3M; > 50 µM (inactive) in the assay on SF-295; > 50 µM (inactive) in the assay with HCC 2998; > 50 µM (inactive) in the assay with SK-MEL-28. For the same compound, the GI50 in the assay with MDA-N was > 50 µM (inactive); in the assay on OVCAR-4, > 50 µM (inactive); in the assay with NCI-H226, 41.3 µM (inactive); in the assay with OVCAR-5, 1.7 µM (inactive).

Consider `N#Cc1c(-c2nc3ccccc3s2)c(=O)oc2cc(O)ccc12`, for which the GI50 with HCT-116 is 31.5 µM (inactive); with SNB-19, 46 µM (inactive); with OVCAR-8, 32.1 µM (inactive); in the assay on COLO 205, 13.3 µM (inactive); with NCI-H460, 27.8 µM (inactive); in the assay with EKVX, 39.6 µM (inactive). For the same compound, the GI50 in the assay with HL-60 was 23.5 µM (inactive); with UACC-257, 24.3 µM (inactive); with Malme-3M, 18.3 µM (inactive); with SF-295, 36.4 µM (inactive); in the assay on HCC 2998 it was 30.3 µM (inactive); in the assay with SK-MEL-28, 41.1 µM (inactive). In addition, the GI50 with MDA-N is 33.1 µM (inactive); with OVCAR-4, 23.1 µM (inactive); in the assay on NCI-H226, 41 µM (inactive); in the assay with OVCAR-5, 52 µM (inactive).

On to `COc1cc2c(cc1OC)[C@@H]1[C@H](C#N)C(=O)C(C)(C)N1CC2`, for which the GI50 with HCT-116, in the assay with SNB-19, in the assay on OVCAR-8, in the assay with COLO 205, in the assay with NCI-H460 and with EKVX was > 100 µM (inactive) in each case. The GI50 in the assay with HL-60 was 23.6 µM (inactive); in the assay on UACC-257 it was > 100 µM (inactive); in the assay on Malme-3M, > 100 µM (inactive); in the assay with SF-295, > 100 µM (inactive); in the assay on HCC 2998, > 100 µM (inactive); with SK-MEL-28, > 100 µM (inactive). In addition, the GI50 with MDA-N, in the assay with OVCAR-4, in the assay on NCI-H226 and with OVCAR-5 was > 100 µM (inactive) in each case.

Take `CCCCn1c(C)c(C(=O)OCC)c2cc(OCc3ccc(C(=O)Nn4c(C)ccc4C)cc3)c(Br)cc21`: the GI50 in the assay on HCT-116, with SNB-19, in the assay on OVCAR-8, with COLO 205, in the assay on NCI-H460 and in the assay on EKVX was > 100 µM (inactive) throughout. The GI50 with HL-60, in the assay on UACC-257, in the assay with Malme-3M, in the assay with SF-295, in the assay on HCC 2998 and with SK-MEL-28 was > 100 µM (inactive) each time. In addition, the GI50 in the assay with MDA-N, in the assay on OVCAR-4, in the assay with NCI-H226 and in the assay on OVCAR-5 was > 100 µM (inactive) each time.

With `O=C(O)CCCCn1ccc(=O)[nH]c1=O`, the GI50 with HCT-116, with SNB-19, in the assay on OVCAR-8, in the assay on COLO 205, in the assay on NCI-H460 and with EKVX was > 100 µM (inactive) in each case. For the same compound, the GI50 with HL-60, with UACC-257, with Malme-3M, with SF-295, in the assay with HCC 2998 and in the assay with SK-MEL-28 was > 100 µM (inactive) each time. Also, the GI50 in the assay with MDA-N, in the assay on OVCAR-4, with NCI-H226 and in the assay with OVCAR-5 was > 100 µM (inactive) in each case.

For `CC1(C)CC(=O)C(CCC(=O)/C=C/c2ccccc2)C(=O)C1`, the GI50 is > 100 µM (inactive) in the assay with HCT-116; > 76.4 µM (inactive) with SNB-19; > 100 µM (inactive) with OVCAR-8; > 100 µM (inactive) in the assay with COLO 205; > 100 µM (inactive) with NCI-H460; > 100 µM (inactive) in the assay with EKVX. The GI50 is 2.51 µM (inactive) in the assay on HL-60; > 100 µM (inactive) in the assay with UACC-257; > 100 µM (inactive) with Malme-3M; > 100 µM (inactive) in the assay with SF-295; > 100 µM (inactive) in the assay on HCC 2998; > 100 µM (inactive) in the assay on SK-MEL-28. Also, the GI50 in the assay with MDA-N, in the assay with OVCAR-4, with NCI-H226 and in the assay with OVCAR-5 was > 100 µM (inactive) in each case.
